Source: US9682908B2, “Method for producing butanol using extractive fermentation” (BUTAMAX ADVANCED BIOFUELS LLC, priority 2013, dated 2017)
≈ marks a conversion by molar mass, not a printed value. Read-outs that look alike come from different tables or passages of the source.

Key:
[1] = system: genetically modified isobutanolagen yeast strain (PNY2141); assay type: cell-based; details: for Glucose, gpl Grams per Liter / OD: With solvent
[2] = system: butanologen; test: Biocompatibility with a butanologen (discussion of examples); assay type: cell-based
[3] = Equilibrium moisture content of solvent; assay type: physicochemical; details: Table 1
Source text: The term “moisture content” as used herein refers to the equilibrium saturation of water contained by the solvent, whether or not product alcohol, e.g., isobutanol is present. At times the term “equilibrium” is used in conjunction with “moisture content” to indicate “moisture content” is related to a particular set of conditions, e.g., temperature, pressure, and so on. As will, be apparent, moisture content commonly refers to a maximum amount of water that can be dissolve by the solvent/solvent mixture given a certain set of conditions.
While the solvent mixture or portions thereof can be immiscible in water, e.g., on the order of 10^−7, in some instances one or more of the solvents can be comparatively weakly miscible in water. It is also to be appreciated, that water can be miscible (e.g., somewhat miscible) in the solvent mixture and/or miscible in one or more solvents included in the solvent mixture. COFA in some examples can absorb moisture, or water, such that the COFA is “wet”. A solvent's tendency to absorb moisture, e.g., act as a solvent, in some examples, can differ from that solvent's ability to solvate in water, e.g., its hydrophobicity. A table of various solvents and their respective characteristics is reproduced directly below.

[4] = Isobutanol partitioning between solvent and water (Kd, butanol partition coefficient)
[5] = system: genetically modified isobutanolagen yeast strain PNY2310; assay type: cell-based; details: for Glucose: Example 9, With Solvent
[6] = system: genetically modified isobutanologen yeast strain; test: Biocompatibility shake flask, OD and glucose (Examples 2, 3); assay type: cell-based; details: for Glucose / OD: Example 3, With Solvent
[7] = system: Sacchromyces Cerevisiae; details: in vitro; Bennis et al. 2004; cited from earlier work
[8] = system: ethanol red yeast strain; test: Biocompatibility shake flask, glucose (Example 12); assay type: cell-based
[9] = system: naturally occurring ethanologen yeast strain; test: Biocompatibility shake flask, glucose uptake (Example 1A); assay type: cell-based; details: 32° C.
[10] = aqueous 2.0 wt % isobutanol, half its mass of solvent
[11] = aqueous 2.0 wt % isobutanol, half its mass of solvent (5 g/2.5 g or 1 g/0.5 g), HPLC
[12] = 10 ml aqueous 6 wt % isobutanol + 1 ml solvent
[13] = 10 ml aqueous 6 wt % isobutanol + 1 ml solvent, gas chromatography
[14] = aqueous 2.0 wt % isobutanol, equal mass of solvent
[15] = aqueous 2.0 wt % isobutanol, equal mass of solvent (3 g/3 g or 5 g/5 g), HPLC
[16] = time 0 hr, 10 ml solvent on 20 ml medium, 32° C.

## CC(C)c1cccc(C(C)C)c1 [1,3-diisopropylbenzene]
[1]; Example 6A
  consumption of glucose in presence of solvent: No significant consumption of glucose
[1]; Example 6A, time 0 hours, 1.0 OD PNY2141, 10 ml solvent on 20 ml medium, 32° C.
  Glucose (grams per liter, gpl): 30 gpl
[1]; Example 6A, time 6 hours
  Glucose (grams per liter, gpl): 30 gpl
[1]; Example 6A, time 11 hours
  Glucose (grams per liter, gpl): 30 gpl
[1]; Example 6A, time 16 hours
  Glucose (grams per liter, gpl): 28 gpl
[1]; Example 6A, time 24 hours
  Glucose (grams per liter, gpl): 29 gpl
[2]
  biocompatibility with a butanologen (found in testing): not to be biocompatible

## CCCCC(CC)CO (stereo not drawn) [2-ethylhexanol]
[3]
  Moisture Content (wt %): 2 wt %

## Cc1ccc(C(C)C)cc1O [Carvacrol, carvacrol]
[3]
  Moisture Content (wt %): 2 wt %
[4]; [10]
  isobutanol in organic layer, calculated by mass balance: 3.42 wt %
  mass partitioning coefficient: 15.5
[4]; [11]
  isobutanol in aqueous layer: 0.22 wt %

## CCN(CC)C(=O)c1cccc(C)c1 [DEET, diethyl m-toluamide]
[4]; [10]
  isobutanol in organic layer, calculated by mass balance: 3.17 wt %
  mass partitioning coefficient: 9.2
[4]; [11]
  isobutanol in aqueous layer: 0.34 wt %

## CC(C)CC(C)CC(O)CC(C)C (stereo not drawn) [Isododecanol]
[3]
  Moisture Content (wt %): 0.2 wt %
[4]; [10]
  isobutanol in organic layer, calculated by mass balance: 2.87 wt %
  mass partitioning coefficient: 5.42
[4]; [11]
  isobutanol in aqueous layer: 0.53 wt %

## CC(CC(C)(C)C)CC(C)(C)CC(C)(C)C (stereo not drawn) [Isohexadecane, 2,2,4,4,6,8,8-heptamethylnonane]
[3]
  Moisture Content (wt %): <0.01 wt %

## CCCCN(CCCC)C(=O)N(CCCC)CCCC [Tetrabutylurea, tetrabutylurea]
[2]
  biocompatibility with a butanologen (found in testing): biocompatible with a butanologen
[5]; Example 9
  glucose concentration versus flask without solvent: No significant difference
[5]; time 0 hr, 0.5 OD PNY2310, 10 ml solvent on 20 ml medium, 32° C.
  Glucose: 28 g/L
[5]; time 4 hr
  Glucose: 25 g/L
[5]; time 8 hr
  Glucose: 14 g/L
[5]; time 12 hr
  Glucose: 0 g/L
[3]
  Moisture Content (wt %): 0.9 wt %
[4]; [10]
  isobutanol in organic layer, calculated by mass balance: 3.06 wt %
  mass partitioning coefficient: 7.35
[4]; [11]
  isobutanol in aqueous layer: 0.417 wt %

## CC(CC(C)(C)C)CC(C)(C)C [isododecane, 2,2,4,6,6-pentamethylheptane]
[6]; Example 3
  growth (glucose uptake and OD) versus flask without solvent: No significant difference in growth
[6]; time 0 hr
  Glucose: 32 g/L
[6]; time 0 hr, 32 g/liter glucose, 10 ml solvent on 20 ml medium, 32° C.
  OD: 0.5
[6]; time 7 hr
  Glucose: 32 g/L
  OD: 0.9
[6]; time 13 hr
  Glucose: 25 g/L
  OD: 1.6
[6]; time 23 hr
  Glucose: 5 g/L
  OD: 4.9
[6]; time 29 hr
  Glucose: 0.1 g/L
  OD: 5.0
[2]
  biocompatibility with a butanologen (found in testing): biocompatible with a butanologen
[3]
  Moisture Content (wt %): <0.01 wt %
[4]; [12]
  isobutanol in aqueous layer: 1.39 mole %
  isobutanol in organic layer: 17.24 mole %
  mass partitioning coefficient: 1.525
  molar partitioning coefficient: 12.4
[4]; [13]
  isobutanol in aqueous layer: 5.45 wt %
  isobutanol in organic layer: 8.31 wt %
[4]; [14]
  isobutanol in organic layer, calculated by mass balance: 0.40 wt %
  mass partitioning coefficient: 0.25
[4]; [15]
  isobutanol in aqueous layer: 1.60 wt %

## Cc1ccc(C(C)C)c(O)c1 [thymol]
[7]
  MFC (minimum fungal concentration): 1800 µM (≈ 270 µg/mL)
  MIC, minimum inhibitory concentration: 1500 µM (≈ 225 µg/mL)

## CCCCC(CC)COP(=O)(OCC(CC)CCCC)OCC(CC)CCCC (stereo not drawn) [tris(2-ethylhexyl) phosphate]
[8]; Example 12
  inhibition in glucose consumption: No significant inhibition in glucose consumption
[8]; time 0 hours, 1.1 OD, 10 ml solvent on 20 ml medium, 32° C.
  Glucose (grams per liter, gpl): 17 gpl
[8]; time 5 hours
  Glucose (grams per liter, gpl): 0 gpl
[8]; time […]
  Glucose (grams per liter, gpl): 11.5 gpl

## triisobutylene
[1]; Example 1B, PNY2141, 32° C.
  growth (OD and glucose) versus flask without solvent: Some impedance to growth
[1]; [16]
  Glucose, gpl Grams per Liter: 28 gpl
  OD: 0.5
[1]; time 6 hr
  Glucose, gpl Grams per Liter: 27 gpl
  OD: 0.6
[1]; time 10 hr
  Glucose, gpl Grams per Liter: 26 gpl
  OD: 0.8
[1]; time 19 hr
  Glucose, gpl Grams per Liter: 22 gpl
  OD: 1.6
[1]; time 23 hr
  Glucose, gpl Grams per Liter: 21 gpl
  OD: 2.1
[1]; time 30 hr
  Glucose, gpl Grams per Liter: 14 gpl
  OD: 2.8
[1]; time 35 hr
  Glucose, gpl Grams per Liter: 10 gpl
  OD: 3.4
[9]; 4 hours
  glucose uptake versus flask without solvent: No significant difference in glucose uptake
[9]; after 4 hours, start 21 g/liter glucose, 0.5 OD, 10 ml solvent on 20 ml medium
  glucose in aqueous phase: less than 0.1 g/liter
[4]; [12]
  isobutanol in aqueous layer: 1.33 mole %
  isobutanol in organic layer: 18.39 mole %
  mass partitioning coefficient: 1.71
  molar partitioning coefficient: 13.8
[4]; [13]
  isobutanol in aqueous layer: 5.28 wt %
  isobutanol in organic layer: 9.03 wt %
[4]; [14]
  isobutanol in organic layer, calculated by mass balance: 0.47 wt %
  mass partitioning coefficient: 0.31
[4]; [15]
  isobutanol in aqueous layer: 1.53 wt %
